Results taken from PubChem BioAssay AID330 (DTP/NCI, 2004).
“And” between values parts separate entries of the source, which are not always exact repeats. Equal values may be shown once. Toxic doses and inconclusive results are not listed. Rule for the calls: active = survival T/C of 150% or more; inactive = T/C below 125% in these data.

Test system: P388 leukemia ip, CD2F1 mice, survival T/C
Experiment: NCI In Vivo Anticancer Drug Screen. Data for tumor model P388 Leukemia (intraperitoneal) in CD2F1 (CDF1) mice
Conditions: endpoint: median survival time, higher = longer survival
Method in brief: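 Mice carrying the transplanted tumor received test compound or vehicle. Survival was recorded in each group, and the value is the treated-group measurement divided by that of the vehicle-treated control group.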

[1] = dose: 60.0 mg/kg/injection, schedule: Q01DX005 (ip), vehicle: Klucel (hydroxypropylcellulose) (HPC)
[2] = dose: 120.0 mg/kg/injection, schedule: Q01DX005 (ip), vehicle: Klucel (hydroxypropylcellulose) (HPC)
[3] = dose: 240.0 mg/kg/injection, schedule: Q01DX005 (ip), vehicle: Klucel (hydroxypropylcellulose) (HPC)
[4] = dose: 60.0 mg/kg/injection, schedule: Q01DX005 (ip), vehicle: saline with Tween-80
[5] = dose: 120.0 mg/kg/injection, schedule: Q01DX005 (ip), vehicle: saline with Tween-80
[6] = dose: 240.0 mg/kg/injection, schedule: Q01DX005 (ip), vehicle: saline with Tween-80
[7] = dose: 100.0 mg/kg/injection, schedule: Q04DX003 (ip), vehicle: saline
[8] = dose: 200.0 mg/kg/injection, schedule: Q04DX003 (ip), vehicle: saline
[9] = dose: 400.0 mg/kg/injection, schedule: Q04DX003 (ip), vehicle: saline
[10] = dose: 100.0 mg/kg/injection, schedule: Q01DX009 (ip), vehicle: Klucel (hydroxypropylcellulose) (HPC)
[11] = dose: 200.0 mg/kg/injection, schedule: Q01DX009 (ip), vehicle: Klucel (hydroxypropylcellulose) (HPC)
[12] = dose: 50.0 mg/kg/injection, schedule: Q01DX009 (ip), vehicle: saline with Tween-80
[13] = dose: 100.0 mg/kg/injection, schedule: Q01DX009 (ip), vehicle: saline with Tween-80
[14] = dose: 50.0 mg/kg/injection, schedule: Q01DX005 (ip), vehicle: Klucel (hydroxypropylcellulose) (HPC)
[15] = dose: 100.0 mg/kg/injection, schedule: Q01DX005 (ip), vehicle: Klucel (hydroxypropylcellulose) (HPC)
[16] = dose: 200.0 mg/kg/injection, schedule: Q01DX005 (ip), vehicle: Klucel (hydroxypropylcellulose) (HPC)
[17] = dose: 50.0 mg/kg/injection, schedule: Q04DX003 (ip), vehicle: saline with Tween-80
[18] = dose: 100.0 mg/kg/injection, schedule: Q04DX003 (ip), vehicle: saline with Tween-80
[19] = dose: 200.0 mg/kg/injection, schedule: Q04DX003 (ip), vehicle: saline with Tween-80
[20] = dose: 50.0 mg/kg/injection, schedule: Q01DX009 (ip), vehicle: Klucel (hydroxypropylcellulose) (HPC)

Measured: T/C

O=C(NC(CO)C(=O)OCc1ccccc1)OCCc1ccccn1 (stereo not given)
inactive: [1] 100 % of control | [2] 96 % of control | [3] 96 % of control

CCOc1ccc(C(CC)c2cc3c(cc2OCC)OCO3)cc1 (stereo not given)
inactive: [4] 100 % of control | [5] 111 % of control | [6] 110 % of control

CCOC(=O)c1ccc(NC(=O)Nc2ccccc2F)cc1
inactive: [4] 95 % of control | [5] 95 % of control | [6] 104 % of control

COc1ccncc1CCc1cnccc1OC
inactive: [7] 99 % of control | [8] 93 % of control | [9] 90 % of control

Cc1ccc(S(=O)(=O)CC(=O)c2ccccc2)cc1
inactive: [10] 108 % of control | [11] 108 % of control | dose: 400.0 mg/kg/injection, schedule: Q01DX009 (ip), vehicle: Klucel (hydroxypropylcellulose) (HPC) 104 % of control

CCOc1ccccc1C1N(C)CCCN1C
inactive: dose: 6.25 mg/kg/injection, schedule: Q01DX009 (ip), vehicle: saline sonified 90 % of control | dose: 12.5 mg/kg/injection, schedule: Q01DX009 (ip), vehicle: saline sonified 95 % of control | dose: 25.0 mg/kg/injection, schedule: Q01DX009 (ip), vehicle: saline sonified 86 % of control

CCc1cccc(NC(=O)Sc2ccc(O)cc2)c1
inactive: [12] 108 % of control | [13] 106 % of control

O=C(O)[C@H](Cc1ccccc1)N1C(=O)N[C@@H](Cc2ccccc2)C1=O
inactive: [4] 96 % of control | [5] 104 % of control | [6] 99 % of control

CC(=O)Oc1ccc2c(c1)C(=O)c1nc(C)c(C)nc1C2=O
inactive: [14] 102 % of control | [15] 102 % of control | [16] 109 % of control

CC(=O)O[C@H]1C2c3c(ccc4c(=O)cc(-c5ccccc5)oc34)OC2OC1(C)C (stereo not given in full)
inactive: dose: 0.4 mg/kg/injection, schedule: Q01DX005 (ip), vehicle: Klucel (hydroxypropylcellulose) (HPC) 97 % of control | dose: 0.8 mg/kg/injection, schedule: Q01DX005 (ip), vehicle: Klucel (hydroxypropylcellulose) (HPC) 92 % of control | dose: 1.6 mg/kg/injection, schedule: Q01DX005 (ip), vehicle: Klucel (hydroxypropylcellulose) (HPC) 97 % of control | dose: 3.2 mg/kg/injection, schedule: Q01DX005 (ip), vehicle: Klucel (hydroxypropylcellulose) (HPC) 98 % of control

Cc1c(Cl)cc[n+]([O-])c1C
inactive: dose: 25.0 mg/kg/injection, schedule: Q01DX009 (ip), vehicle: other 100 % of control | dose: 50.0 mg/kg/injection, schedule: Q01DX009 (ip), vehicle: other 108 % of control | dose: 100.0 mg/kg/injection, schedule: Q01DX009 (ip), vehicle: other 108 % of control | dose: 200.0 mg/kg/injection, schedule: Q01DX009 (ip), vehicle: other 107 % of control | dose: 400.0 mg/kg/injection, schedule: Q01DX009 (ip), vehicle: other 110 % of control

COc1ccc(OC)c(C(=O)C[n+]2ccccc2)c1
inactive: dose: 12.5 mg/kg/injection, schedule: Q04DX003 (ip), vehicle: saline 95 % of control | dose: 25.0 mg/kg/injection, schedule: Q04DX003 (ip), vehicle: saline 90 % of control | dose: 50.0 mg/kg/injection, schedule: Q04DX003 (ip), vehicle: saline 100 % of control

C=CC(CO)N1CC1 (stereo not given)
inactive: dose: 0.78 mg/kg/injection, schedule: Q01DX009 (ip), vehicle: saline 108 % of control | dose: 1.56 mg/kg/injection, schedule: Q01DX009 (ip), vehicle: saline 108 % of control | dose: 3.13 mg/kg/injection, schedule: Q01DX009 (ip), vehicle: saline 108 % of control

Cc1nc2ccc(N(C)C)cc2c2c1Cc1c(C)nc3ccc(N(C)C)cc3c1O2
inactive: [4] 88 % of control | [5] 88 % of control | [6] 94 % of control

CCCn1c2nc(=O)[nH]c(=O)c-2cc2ccccc21
inactive: dose: 10.0 mg/kg/injection, schedule: Q01DX009 (ip), vehicle: saline with Tween-80 105 % of control | dose: 20.0 mg/kg/injection, schedule: Q01DX009 (ip), vehicle: saline with Tween-80 103 % of control | dose: 40.0 mg/kg/injection, schedule: Q01DX009 (ip), vehicle: saline with Tween-80 113 % of control

CCc1nc(-c2ccccc2)nc2c1nc(-c1ccc(C)cc1)n2Nc1ccccc1
inactive: [14] 88 % of control | [15] 90 % of control | [16] 89 % of control

COC(=O)c1cc2c(cc1/C=C/C=O)OCO2
inactive: [4] 100 % of control | [5] 109 % of control | [6] 109 % of control

NNC12CCC(c3ccccc31)c1ccccc12
inactive: [17] 95 % of control | [18] 110 % of control | [19] 110 % of control

COc1cc(OC)c(C(c2cc3c(cc2O)OCO3)N2CCOCC2)c(OC)c1 (stereo not given)
inactive: [4] 118 % of control | [5] 120 % of control

O=C1C(Br)=C(c2ccccc2)S(=O)(=O)c2ccccc21
inactive: [1] 109 % of control | [2] 114 % of control | [3] 114 % of control

O=C1C(=C2C=CN(CCCN3CCCC3)C=C2)C(=O)c2ccccc21
inactive: [20] 90 % of control | [10] 96 % of control | [11] 95 % of control

C=C(C)[C@@H](/C=C/[C@@H](C)[C@H]1CC[C@H]2C3=CC[C@H]4C[C@@H](O)CC[C@]4(C)[C@H]3CC[C@]12C)CC
inactive: [12] 90 % of control | [17] 95 % of control | [13] 90 % of control | [18] 90 % of control | dose: 200.0 mg/kg/injection, schedule: Q01DX009 (ip), vehicle: saline with Tween-80 100 % of control | [19] 95 % of control

CC/C(=N/NS(=O)(=O)c1ccc(C)cc1)c1ccc(O)cc1
inactive: [7] 107 % of control | [8] 100 % of control | [9] 98 % of control

CCOC(=O)c1sc(=S)n(C)c1C
inactive: dose: 12.5 mg/kg/injection, schedule: Q01DX005 (ip), vehicle: saline with Tween-80 100 % of control | dose: 25.0 mg/kg/injection, schedule: Q01DX005 (ip), vehicle: saline with Tween-80 103 % of control | dose: 50.0 mg/kg/injection, schedule: Q01DX005 (ip), vehicle: saline with Tween-80 102 % of control and 104 % of control

CCC(=O)C(C)C1(C(=O)OC)NC(=S)NC(=O)C1C#N (stereo not given)
inactive: dose: 7.5 mg/kg/injection, schedule: Q01DX005 (ip), vehicle: saline with Tween-80 102 % of control | dose: 15.0 mg/kg/injection, schedule: Q01DX005 (ip), vehicle: saline with Tween-80 99 % of control | dose: 30.0 mg/kg/injection, schedule: Q01DX005 (ip), vehicle: saline with Tween-80 103 % of control

CCOC(=O)c1ccc(NC(=S)P(=O)(c2ccccc2)c2ccccc2)cc1
inactive: [20] 88 % of control | [10] 89 % of control | [11] 94 % of control

COc1ccc(C2C3CCCC(C3O)C(c3ccc(OC)cc3)N2C)cc1 (stereo not given)
inactive: dose: 100.0 mg/kg/injection, schedule: Q04DX003 (ip), vehicle: suspension in saline 103 % of control | dose: 200.0 mg/kg/injection, schedule: Q04DX003 (ip), vehicle: suspension in saline 104 % of control | dose: 400.0 mg/kg/injection, schedule: Q04DX003 (ip), vehicle: suspension in saline 100 % of control

Cn1c(=O)c2nc(-c3ccccn3)cnc2n(C)c1=O
inactive: dose: 25.0 mg/kg/injection, schedule: Q01DX001 (ip), vehicle: Klucel (hydroxypropylcellulose) (HPC) 116 % of control | dose: 50.0 mg/kg/injection, schedule: Q01DX001 (ip), vehicle: Klucel (hydroxypropylcellulose) (HPC) 106 % of control | dose: 100.0 mg/kg/injection, schedule: Q01DX001 (ip), vehicle: Klucel (hydroxypropylcellulose) (HPC) 100 % of control and 122 % of control and 92 % of control | dose: 200.0 mg/kg/injection, schedule: Q01DX001 (ip), vehicle: Klucel (hydroxypropylcellulose) (HPC) 95 % of control (2×) and 96 % of control | dose: 400.0 mg/kg/injection, schedule: Q01DX001 (ip), vehicle: Klucel (hydroxypropylcellulose) (HPC) 94 % of control and 95 % of control
